Test results: article PMC4512239 (Clinical cancer research : an official journal of the …, 2015)

Test: phase I safety and tolerability
Assay type: in vivo, human

Compound: CNC(=O)c1cccc(-c2ccc3c(N4CCOC[C@@H]4C)nc(N4CCOC[C@@H]4C)nc3n2)c1 [AZD2014]
- grade 3 or above hypercholesterolemia or triglyceridemia (50 mg BD cohort): no grade 3 or above hypercholesterolemia or triglyceridemia was seen
- dose limiting toxicities (50 mg BD starting dose, 6 patients): no DLTs
- nausea, mucositis, diarrhea and vomiting: share of grade 3 or 4 (50 mg BD, Part A and Part B): less than 5%
- rash: share of grade 3 or higher (50 mg BD, Part A and Part B): less than 5%
- evaluable patients with dose limiting toxicities (70 mg BD): 2/4
- patients with dose limiting toxicities (100 mg BD): 4/4
- Anemia, Any grade (All 50mg BD solution (N=41)): 7 (17.1) Number (%) of patients
- Anemia, CTCAE grade 1-2 (All 50mg BD solution (N=41)): 7 (17.1) Number (%) of patients
- Anemia, CTCAE grade >=3 (All 50mg BD solution (N=41)): 0 Number (%) of patients
- Back pain, Any grade (All 50mg BD solution (N=41)): 7 (17.1) Number (%) of patients
- Back pain, CTCAE grade 1-2 (All 50mg BD solution (N=41)): 6 (14.6) Number (%) of patients
- Back pain, CTCAE grade >=3 (All 50mg BD solution (N=41)): 1 (2.4) Number (%) of patients
- Constipation, Any grade (All 50mg BD solution (N=41)): 13 (31.7) Number (%) of patients
- Constipation, CTCAE grade 1-2 (All 50mg BD solution (N=41)): 13 (31.7) Number (%) of patients
- Constipation, CTCAE grade >=3 (All 50mg BD solution (N=41)): 0 Number (%) of patients
- Cough, Any grade (All 50mg BD solution (N=41)): 8 (19.5) Number (%) of patients
- Cough, CTCAE grade 1-2 (All 50mg BD solution (N=41)): 8 (19.5) Number (%) of patients
- Cough, CTCAE grade >=3 (All 50mg BD solution (N=41)): 0 Number (%) of patients
- Decreased appetite, Any grade (All 50mg BD solution (N=41)): 17 (41.5) Number (%) of patients
- Decreased appetite, CTCAE grade 1-2 (All 50mg BD solution (N=41)): 17 (41.5) Number (%) of patients
- Decreased appetite, CTCAE grade >=3 (All 50mg BD solution (N=41)): 0 Number (%) of patients
- Diarrhea, Any grade (All 50mg BD solution (N=41)): 17 (41.5) Number (%) of patients
- Diarrhea, CTCAE grade 1-2 (All 50mg BD solution (N=41)): 17 (41.5) Number (%) of patients
- Diarrhea, CTCAE grade >=3 (All 50mg BD solution (N=41)): 0 Number (%) of patients
- Dry mouth, Any grade (All 50mg BD solution (N=41)): 8 (19.5) Number (%) of patients
- Dry mouth, CTCAE grade 1-2 (All 50mg BD solution (N=41)): 8 (19.5) Number (%) of patients
- Dry mouth, CTCAE grade >=3 (All 50mg BD solution (N=41)): 0 Number (%) of patients
- Dyspnea, Any grade (All 50mg BD solution (N=41)): 7 (17.1) Number (%) of patients
- Dyspnea, CTCAE grade 1-2 (All 50mg BD solution (N=41)): 5 (12.2) Number (%) of patients
- Dyspnea, CTCAE grade >=3 (All 50mg BD solution (N=41)): 2 (4.9) Number (%) of patients
- Fatigue, Any grade (All 50mg BD solution (N=41)): 32 (78.0) Number (%) of patients
- Fatigue, CTCAE grade 1-2 (All 50mg BD solution (N=41)): 30 (73.2) Number (%) of patients
- Fatigue, CTCAE grade >=3 (All 50mg BD solution (N=41)): 2 (4.9) Number (%) of patients
- Hypokalemia, Any grade (All 50mg BD solution (N=41)): 6 (14.6) Number (%) of patients
- Hypokalemia, CTCAE grade 1-2 (All 50mg BD solution (N=41)): 5 (12.2) Number (%) of patients
- Hypokalemia, CTCAE grade >=3 (All 50mg BD solution (N=41)): 1 (2.4) Number (%) of patients
- Lower respiratory tract infection, Any grade (All 50mg BD solution (N=41)): 7 (17.1) Number (%) of patients
- Lower respiratory tract infection, CTCAE grade 1-2 (All 50mg BD solution (N=41)): 6 (14.6) Number (%) of patients
- Lower respiratory tract infection, CTCAE grade >=3 (All 50mg BD solution (N=41)): 1 (2.4) Number (%) of patients
- Mucositis, Any grade (All 50mg BD solution (N=41)): 20 (48.8) Number (%) of patients
- Mucositis, CTCAE grade 1-2 (All 50mg BD solution (N=41)): 19 (46.3) Number (%) of patients
- Mucositis, CTCAE grade >=3 (All 50mg BD solution (N=41)): 1 (2.4) Number (%) of patients
- Nausea, Any grade (All 50mg BD solution (N=41)): 21 (51.2) Number (%) of patients
- Nausea, CTCAE grade 1-2 (All 50mg BD solution (N=41)): 19 (46.3) Number (%) of patients
- Nausea, CTCAE grade >=3 (All 50mg BD solution (N=41)): 2 (4.9) Number (%) of patients
- Pruritus, Any grade (All 50mg BD solution (N=41)): 13 (31.7) Number (%) of patients
- Pruritus, CTCAE grade 1-2 (All 50mg BD solution (N=41)): 13 (31.7) Number (%) of patients
- Pruritus, CTCAE grade >=3 (All 50mg BD solution (N=41)): 0 Number (%) of patients
- Rash, Any grade (All 50mg BD solution (N=41)): 17 (41.5) Number (%) of patients
- Rash, CTCAE grade 1-2 (All 50mg BD solution (N=41)): 15 (36.6) Number (%) of patients
- Rash, CTCAE grade >=3 (All 50mg BD solution (N=41)): 2 (4.9) Number (%) of patients
- Vomiting, Any grade (All 50mg BD solution (N=41)): 12 (29.3) Number (%) of patients
- Vomiting, CTCAE grade 1-2 (All 50mg BD solution (N=41)): 11 (26.8) Number (%) of patients
- Vomiting, CTCAE grade >=3 (All 50mg BD solution (N=41)): 1 (2.4) Number (%) of patients
- Anemia, Any grade (Part A 25mg BD solution (N=6)): 0 Number (%) of patients
- Anemia, CTCAE grade 1-2 (Part A 25mg BD solution (N=6)): 0 Number (%) of patients
- Anemia, CTCAE grade >=3 (Part A 25mg BD solution (N=6)): 0 Number (%) of patients
- Back pain, Any grade (Part A 25mg BD solution (N=6)): 0 Number (%) of patients
- Back pain, CTCAE grade 1-2 (Part A 25mg BD solution (N=6)): 0 Number (%) of patients
- Back pain, CTCAE grade >=3 (Part A 25mg BD solution (N=6)): 0 Number (%) of patients
- Constipation, Any grade (Part A 25mg BD solution (N=6)): 2 (33.3) Number (%) of patients
- Constipation, CTCAE grade 1-2 (Part A 25mg BD solution (N=6)): 2 (33.3) Number (%) of patients
- Constipation, CTCAE grade >=3 (Part A 25mg BD solution (N=6)): 0 Number (%) of patients
- Cough, Any grade (Part A 25mg BD solution (N=6)): 3 (50.0) Number (%) of patients
- Cough, CTCAE grade 1-2 (Part A 25mg BD solution (N=6)): 3 (50.0) Number (%) of patients
- Cough, CTCAE grade >=3 (Part A 25mg BD solution (N=6)): 0 Number (%) of patients
- Decreased appetite, Any grade (Part A 25mg BD solution (N=6)): 3 (50.0) Number (%) of patients
- Decreased appetite, CTCAE grade 1-2 (Part A 25mg BD solution (N=6)): 3 (50.0) Number (%) of patients
- Decreased appetite, CTCAE grade >=3 (Part A 25mg BD solution (N=6)): 0 Number (%) of patients
- Diarrhea, Any grade (Part A 25mg BD solution (N=6)): 2 (33.3) Number (%) of patients
- Diarrhea, CTCAE grade 1-2 (Part A 25mg BD solution (N=6)): 2 (33.3) Number (%) of patients
- Diarrhea, CTCAE grade >=3 (Part A 25mg BD solution (N=6)): 0 Number (%) of patients
- Dry mouth, CTCAE grade >=3 (Part A 25mg BD solution (N=6)): 0 Number (%) of patients
- Dyspnea, Any grade (Part A 25mg BD solution (N=6)): 1 (16.7) Number (%) of patients
- Dyspnea, CTCAE grade 1-2 (Part A 25mg BD solution (N=6)): 1 (16.7) Number (%) of patients
- Dyspnea, CTCAE grade >=3 (Part A 25mg BD solution (N=6)): 0 Number (%) of patients
- Fatigue, Any grade (Part A 25mg BD solution (N=6)): 3 (50.0) Number (%) of patients
- Fatigue, CTCAE grade 1-2 (Part A 25mg BD solution (N=6)): 2 (33.3) Number (%) of patients
- Fatigue, CTCAE grade >=3 (Part A 25mg BD solution (N=6)): 1 (16.7) Number (%) of patients
- Hypokalemia, Any grade (Part A 25mg BD solution (N=6)): 2 (33.3) Number (%) of patients
- Hypokalemia, CTCAE grade 1-2 (Part A 25mg BD solution (N=6)): 2 (33.3) Number (%) of patients
- Hypokalemia, CTCAE grade >=3 (Part A 25mg BD solution (N=6)): 0 Number (%) of patients
- Lower respiratory tract infection, Any grade (Part A 25mg BD solution (N=6)): 1 (16.7) Number (%) of patients
- Lower respiratory tract infection, CTCAE grade 1-2 (Part A 25mg BD solution (N=6)): 0 Number (%) of patients
- Lower respiratory tract infection, CTCAE grade >=3 (Part A 25mg BD solution (N=6)): 1 (16.7) Number (%) of patients
- Mucositis, Any grade (Part A 25mg BD solution (N=6)): 2 (33.3) Number (%) of patients
- Mucositis, CTCAE grade 1-2 (Part A 25mg BD solution (N=6)): 2 (33.3) Number (%) of patients
- Mucositis, CTCAE grade >=3 (Part A 25mg BD solution (N=6)): 0 Number (%) of patients
- Nausea, Any grade (Part A 25mg BD solution (N=6)): 2 (33.3) Number (%) of patients
- Nausea, CTCAE grade 1-2 (Part A 25mg BD solution (N=6)): 2 (33.3) Number (%) of patients
- Nausea, CTCAE grade >=3 (Part A 25mg BD solution (N=6)): 0 Number (%) of patients
- Pruritus, Any grade (Part A 25mg BD solution (N=6)): 0 Number (%) of patients
- Pruritus, CTCAE grade 1-2 (Part A 25mg BD solution (N=6)): 0 Number (%) of patients
- Pruritus, CTCAE grade >=3 (Part A 25mg BD solution (N=6)): 0 Number (%) of patients
- Rash, Any grade (Part A 25mg BD solution (N=6)): 1(16.7) Number (%) of patients
- Rash, CTCAE grade 1-2 (Part A 25mg BD solution (N=6)): 1(16.7) Number (%) of patients
- Rash, CTCAE grade >=3 (Part A 25mg BD solution (N=6)): 0 Number (%) of patients
- Vomiting, Any grade (Part A 25mg BD solution (N=6)): 0 Number (%) of patients
- Vomiting, CTCAE grade 1-2 (Part A 25mg BD solution (N=6)): 0 Number (%) of patients
- Vomiting, CTCAE grade >=3 (Part A 25mg BD solution (N=6)): 0 Number (%) of patients
- Anemia, Any grade (Part A 70mg BD solution (N=5)): 1 (20.0) Number (%) of patients
- Anemia, CTCAE grade 1-2 (Part A 70mg BD solution (N=5)): 0 Number (%) of patients
- Anemia, CTCAE grade >=3 (Part A 70mg BD solution (N=5)): 1 (20.0) Number (%) of patients
- Back pain, Any grade (Part A 70mg BD solution (N=5)): 0 Number (%) of patients
- Back pain, CTCAE grade 1-2 (Part A 70mg BD solution (N=5)): 0 Number (%) of patients
- Back pain, CTCAE grade >=3 (Part A 70mg BD solution (N=5)): 0 Number (%) of patients
- Constipation, Any grade (Part A 70mg BD solution (N=5)): 0 Number (%) of patients
- Constipation, CTCAE grade 1-2 (Part A 70mg BD solution (N=5)): 0 Number (%) of patients
- Constipation, CTCAE grade >=3 (Part A 70mg BD solution (N=5)): 0 Number (%) of patients
- Cough, Any grade (Part A 70mg BD solution (N=5)): 1 (20.0) Number (%) of patients
- Cough, CTCAE grade 1-2 (Part A 70mg BD solution (N=5)): 1 (20.0) Number (%) of patients
- Cough, CTCAE grade >=3 (Part A 70mg BD solution (N=5)): 0 Number (%) of patients
- Decreased appetite, Any grade (Part A 70mg BD solution (N=5)): 2 (40.0) Number (%) of patients
- Decreased appetite, CTCAE grade 1-2 (Part A 70mg BD solution (N=5)): 2 (40.0) Number (%) of patients
- Decreased appetite, CTCAE grade >=3 (Part A 70mg BD solution (N=5)): 0 Number (%) of patients
- Diarrhea, Any grade (Part A 70mg BD solution (N=5)): 3 (60.0) Number (%) of patients
- Diarrhea, CTCAE grade 1-2 (Part A 70mg BD solution (N=5)): 3 (60.0) Number (%) of patients
- Diarrhea, CTCAE grade >=3 (Part A 70mg BD solution (N=5)): 0 Number (%) of patients
- Dry mouth, Any grade (Part A 70mg BD solution (N=5)): 0 Number (%) of patients
- Dry mouth, CTCAE grade 1-2 (Part A 70mg BD solution (N=5)): 0 Number (%) of patients
- Dry mouth, CTCAE grade >=3 (Part A 70mg BD solution (N=5)): 0 Number (%) of patients
- Dyspnea, Any grade (Part A 70mg BD solution (N=5)): 1 (20.0) Number (%) of patients
- Dyspnea, CTCAE grade 1-2 (Part A 70mg BD solution (N=5)): 1 (20.0) Number (%) of patients
- Dyspnea, CTCAE grade >=3 (Part A 70mg BD solution (N=5)): 0 Number (%) of patients
